Legend:
[1] = target: T1, Cysteineless Mouse MDR3 P-glycoprotein (Mus musculus, UniProt P21447, C1070A/C1121A/C1223A/C133A/C427A/C638A/C669A/C713A/C952A); test: ATP hydrolysis by purified P-glycoprotein, basal and verapamil-stimulated; type: biochemical; conditions: for Stimulated ATPase (% of DMSO) / Effect on stimulated ATPase: in the presence of verapamil; for Stimulated ATPase (% of DMSO) / Basal ATPase (% of DMSO): ± standard deviation; for Basal ATPase (% of DMSO) / Effect on basal ATPase: without added transport substrate
T1 construct: made in house; host or cells: Pichia pastoris
Text: The efficacy of molecules identified using in silico methods to function as potential inhibitors of P-glycoprotein was initially tested with regard to their capability to inhibit ATP hydrolysis by purified P-glycoprotein. For this purpose, a well-established activity assay for ATP hydrolyzing enzymes that uses the oxidation of NADH to NAD+ through coupling the reactions of pyruvate kinase and lactate dehydrogenase to the hydrolysis of ATP was adapted to medium throughput conditions on 96 well plates. […] In this set-up, the effects of potential small molecule inhibitors on the ATP hydrolysis activity of P-glycoprotein were tested in duplicate or triplicate and were repeated at least two times using different enzyme preparations.
The P-glycoprotein used in these assays was a close relative of the human P-glycoprotein that is found in mice. A mutant version of the mouse P-glycoprotein where all intrinsic cysteine amino acids had been replaced by alanine residues was recombinantly expressed in the yeast Pichia pastoris and used for these initial tests. […] Prior to testing the ATP-hydrolysis activity, P-glycoprotein was incubated with phosphatidyl choline for stabilization of the enzyme during the assay.
Different concentrations of the to-be-tested small molecules were added and pre-incubated at 37° C. The ATP hydrolysis reaction was then started by adding equal volume of double concentrated ATPase cocktail. The final ATP concentration in the reaction was 2 mM. The reaction was allowed to proceed for 20 minutes, the rate of ATP hydrolysis was calculated using the molar extinction coefficient of NADH, and the one-to-one relationship of ATP hydrolyzed and NADH oxidized.
Evaluation of mode of inhibition of P-glycoprotein by Group 1 and Group 2 variants of compound 29. To assess the mode of inhibition of P-gp by the novel variants of P-gp inhibitor 29, ATP hydrolysis by P-gp was evaluated in the presence or absence of the variants. […] Murine P-gp (MDR3) expressed in Pichia pastoris that had all naturally occurring cysteines replaced with alanine, was used^45, 46. It is widely assumed that the ATP hydrolytic rate of P-gp is stimulated in the presence of transport substrates when compared to ATP hydrolysis in the absence of transport substrates. Assays comparing these rates can therefore be useful not only in identifying inhibitors of P-gp catalyzed ATP hydrolysis, but also to potentially infer whether a compound might be a transport substrate if basal ATPase rates are stimulated by the addition of a compound.

DU145TXR [2] = test: Resensitization of DU145TXR to paclitaxel by 29 variants (MTT cell viability); type: cell-based, human; conditions: for Fold vs PTX ÷ 29: compared to parental compound 29
Text: The Group 1 ChemGen/docking routine produced variants of P-gp inhibitor 29 resensitize a multidrug resistant, P-gp overexpressing prostate cancer cell line to paclitaxel. The mitochondrial reduction potential of cells is often used as an indicator for cell viability using MTT assays^40-42. Using these assays it was observed that the five Group 1 derivatives of 29 predicted through the ChemGen/docking routine and synthesized here, 216, 227, 231, 541 and 551, re-sensitized the P-gp overexpressing prostate cancer cell line, DU145TXR^33, to the chemotherapeutic, paclitaxel (FIG. 9, showing results of assays at concentrations of 3 μM, 5 μM, 7 μM, and 10 μM).
Cytotoxicity of the chemotherapeutic, paclitaxel (PTX) to P-gp overexpressing prostate cancer cells, DU145TXR, was determined in the absence and presence of the ChemGen designed 29-variants, 216, 227, 231, 541 and 551. For each experimental compound IC50 values of PTX alone or in the presence of inhibitors, fold improvement of PTX sensitivity in the presence of inhibitor, and fold improvement of PTX sensitivity by variants compared to parental compound 29 are given.

[3] = target: T1, Cysteineless Mouse MDR3 P-glycoprotein; test: SL-ATP binding to P-gp by ESR spectroscopy; conditions: for Maximum ATP binding mol SL-ANP bound/mol P-gp: SL-ATP titration in presence of compound
Text: Determination of the possible mode of ATP hydrolysis inhibition by the identified P-glycoprotein inhibitors. The mode of hydrolysis of ATP by P-glycoprotein was investigated by measuring the maximal binding stoichiometry and binding affinity of an analog of ATP, SL-ATP, and by Electron Spin Resonance (ESR) spectroscopy, similar to in both the presence and absence of the identified inhibitors.
The high-field signal of the freely mobile, unbound SL-ATP is compared and is used to calculate the amount of ATP-analog bound to P-glycoprotein. Binding of SL-ATP in the absence of any P-glycoprotein inhibitor saturated at about 2 mol of SL-nucleotide bounds per mol of P-glycoprotein.
FIGS. 2A-2D are plots showing the effects of P-glycoprotein ATP hydrolysis inhibitors on nucleotide binding. Between 30 and 50 microM Pgp were incubated with 50 microM inhibitor compound. Increasing amounts of SL-ATP were added. The ESR signal of the free SL-ATP in the presence of P-glycoprotein and inhibitor was compared to that in the absence of P-glycoprotein. The graphs represent at least 3 individual studies each using 3 to 5 different P-glycoprotein preparations.

[4] = tested on: P-gp overexpressing DU145TXR cells; test: Calcein AM accumulation assay; type: cell-based, human
Experimental: Accumulation and cellular retention of calcein AM in P-gp overexpressing prostate cancer cells upon incubation with Group 1 SMU-29 variants. Calcein AM accumulation assays have been used by us previously to evaluate P-gp-substrate accumulation in real time in the presence or absence of P-gp inhibitors^28. For these assays, P-gp overexpressing DU145TXR cells were incubated with the respective inhibitors in the presence of the P-gp substrate, calcein AM. Inhibition of P-gp leads to cellular accumulation of calcein AM and to cleavage of its acetoxymethyl ester groups, resulting in the generation of the highly fluorescent compound, calcein. The anionic calcein is not a substrate of P-gp and remains in the cells. In these assays, the relative fluorescence of cellular calcein was measured over time and the results of these assays are shown in FIG. 10A.
The inventors determined if preferential partitioning of variants in the hydrophobic part of the cell membrane may keep them more distant from the putative allosteric site on P-gp which is located adjacent to the membrane in the cytoplasm, therefore potentially slowing the inhibitory effect of the compounds.

[5] = target: Normal Human MDR1 P-glycoprotein (Homo sapiens, UniProt P08183); test: ATP hydrolysis by human P-gp assembled into membrane nanodiscs; type: biochemical; conditions: human MDR1 P-gp in nanodiscs
Text: To assess whether the observed discrepancies of compounds stimulating basal P-gp ATPase activity but not being transport substrates of the human pump in the cell culture assessments were due to the fact that these biochemical assays used a cysteineless variant of the mouse MDR3 P-glycoprotein, the experiments were repeated using normal human MDR1 P-gp. In order to stabilize the human protein for the activity assays, the protein was assembled into membrane nanodiscs as described herein.

DU145TXR [6] = test: Intrinsic toxicity, MTT survival; type: cell-based, human; conditions: in the absence of chemotherapeutic
Experimental: Percent survival determined by MTT assay calculated relative to cells treated with equal volume DMSO vehicle and represent the mean±SEM from 2-4 separate studies, each study performed in triplicate wells.
The intrinsic in vitro toxicities of identified compounds were evaluated to determine their potential therapeutic window. This was assessed in a noncancerous cell line (HFL1) and the human prostate cancer cell lines DU145 and the MDR sub-line DU145TxR.

P-gp = P-gp (Homo sapiens, UniProt P08183)
Experimental: Stimulation of basal ATPase by 29-variants was used as an indicator that a compound may be a P-gp transport substrate. Effects on stimulated P-gp ATPase activity indicated whether a compound directly interfered with ATP usage by the protein (***, p<0.001; **, p<0.01; *, p<0.1; NS, not significant). Quantitative cellular accumulation of 29-variants was performed using LC-MS/MS and is presented as a ratio of the cellular amounts of 29-variants in the presence of P-gp inhibitor, tariquidar, divided by amounts accumulated in its absence. […] Binding of an ATP analog, SL-ATP, to P-gp was used to determine whether ATP binding to P-gp was affected by the 29-variants. Values+/−standard deviations are shown for at least three different P-gp preparations and three independent SL-ATP titration experiments. The values for SL-ATP binding in the presence of 29 were taken directly from Brewer et al. (2014).
Intracellular accumulation of compound 29 variants. Cell accumulation assays for each of the 29 variants were performed as in reference^28 to more directly assess whether the compounds were indeed transport substrates for P-gp.

Normal Human MDR1 P-glycoprotein, sequence (P08183 whole entry): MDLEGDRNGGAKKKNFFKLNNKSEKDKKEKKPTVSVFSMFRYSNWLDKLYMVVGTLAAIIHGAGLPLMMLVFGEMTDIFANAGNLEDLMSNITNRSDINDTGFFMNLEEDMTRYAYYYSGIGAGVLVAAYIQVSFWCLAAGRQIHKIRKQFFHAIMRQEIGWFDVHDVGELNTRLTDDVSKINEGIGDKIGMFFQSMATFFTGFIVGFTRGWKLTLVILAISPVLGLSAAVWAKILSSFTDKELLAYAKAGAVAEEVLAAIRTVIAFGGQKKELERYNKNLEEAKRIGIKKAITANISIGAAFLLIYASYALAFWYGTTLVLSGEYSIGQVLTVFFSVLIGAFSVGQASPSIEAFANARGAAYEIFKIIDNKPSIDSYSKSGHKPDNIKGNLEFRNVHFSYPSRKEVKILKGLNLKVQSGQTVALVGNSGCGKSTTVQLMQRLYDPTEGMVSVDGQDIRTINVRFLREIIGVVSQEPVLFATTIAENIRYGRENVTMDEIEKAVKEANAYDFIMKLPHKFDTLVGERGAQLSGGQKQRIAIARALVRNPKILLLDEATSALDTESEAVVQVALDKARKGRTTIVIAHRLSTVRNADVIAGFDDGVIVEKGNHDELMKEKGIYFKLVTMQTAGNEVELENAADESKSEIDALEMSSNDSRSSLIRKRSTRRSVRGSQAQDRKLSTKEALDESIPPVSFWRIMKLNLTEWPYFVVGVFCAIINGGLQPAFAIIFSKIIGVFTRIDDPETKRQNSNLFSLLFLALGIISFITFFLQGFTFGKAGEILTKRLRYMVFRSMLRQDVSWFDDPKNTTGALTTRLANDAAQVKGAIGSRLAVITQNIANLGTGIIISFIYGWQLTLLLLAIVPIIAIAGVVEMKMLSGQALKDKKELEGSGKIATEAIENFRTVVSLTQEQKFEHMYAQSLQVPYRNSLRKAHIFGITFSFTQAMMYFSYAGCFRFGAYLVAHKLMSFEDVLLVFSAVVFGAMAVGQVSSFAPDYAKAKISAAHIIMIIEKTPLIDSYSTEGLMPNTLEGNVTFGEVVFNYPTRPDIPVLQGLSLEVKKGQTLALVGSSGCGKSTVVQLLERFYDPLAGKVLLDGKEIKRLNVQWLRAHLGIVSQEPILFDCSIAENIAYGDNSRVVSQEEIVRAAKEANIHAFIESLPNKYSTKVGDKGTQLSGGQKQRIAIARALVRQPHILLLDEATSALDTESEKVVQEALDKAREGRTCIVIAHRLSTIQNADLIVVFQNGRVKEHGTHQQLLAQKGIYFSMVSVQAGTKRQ
T1 sequence (P21447 whole entry C133A/C427A/C638A/C669A/C713A/C952A/C1070A/C1121A/C1223A): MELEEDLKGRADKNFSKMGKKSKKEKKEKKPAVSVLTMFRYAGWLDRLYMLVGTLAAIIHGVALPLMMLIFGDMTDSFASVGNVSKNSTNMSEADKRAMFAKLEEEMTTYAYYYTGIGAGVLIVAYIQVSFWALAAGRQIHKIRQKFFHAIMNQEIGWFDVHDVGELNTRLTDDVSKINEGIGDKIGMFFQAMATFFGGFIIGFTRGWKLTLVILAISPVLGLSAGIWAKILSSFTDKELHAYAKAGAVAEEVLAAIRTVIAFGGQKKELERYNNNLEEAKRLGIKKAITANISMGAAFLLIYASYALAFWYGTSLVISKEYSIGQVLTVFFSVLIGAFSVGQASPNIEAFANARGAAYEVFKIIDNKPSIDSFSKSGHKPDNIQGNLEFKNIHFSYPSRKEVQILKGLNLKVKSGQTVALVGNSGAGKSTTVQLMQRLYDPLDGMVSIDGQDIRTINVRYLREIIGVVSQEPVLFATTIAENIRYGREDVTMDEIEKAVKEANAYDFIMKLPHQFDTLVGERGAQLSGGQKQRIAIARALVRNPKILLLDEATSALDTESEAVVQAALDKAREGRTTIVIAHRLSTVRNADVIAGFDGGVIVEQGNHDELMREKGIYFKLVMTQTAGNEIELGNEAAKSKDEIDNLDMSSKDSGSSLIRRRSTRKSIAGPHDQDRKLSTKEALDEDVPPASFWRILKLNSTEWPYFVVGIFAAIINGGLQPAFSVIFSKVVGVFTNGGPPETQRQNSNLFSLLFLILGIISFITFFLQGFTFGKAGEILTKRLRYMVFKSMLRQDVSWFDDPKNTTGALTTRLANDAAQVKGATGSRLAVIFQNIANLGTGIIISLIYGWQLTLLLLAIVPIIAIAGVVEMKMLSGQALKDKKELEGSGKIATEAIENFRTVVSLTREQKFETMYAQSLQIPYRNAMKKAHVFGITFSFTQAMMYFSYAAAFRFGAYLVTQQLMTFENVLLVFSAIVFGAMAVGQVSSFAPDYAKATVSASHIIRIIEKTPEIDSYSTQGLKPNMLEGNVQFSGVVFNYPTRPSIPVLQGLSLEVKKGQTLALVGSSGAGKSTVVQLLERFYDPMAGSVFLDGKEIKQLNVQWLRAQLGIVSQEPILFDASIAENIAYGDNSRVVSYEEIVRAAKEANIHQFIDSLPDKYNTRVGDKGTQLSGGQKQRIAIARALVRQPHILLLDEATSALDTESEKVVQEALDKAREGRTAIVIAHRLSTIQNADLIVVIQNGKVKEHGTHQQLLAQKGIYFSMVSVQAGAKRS
P-gp, sequence (P08183 whole entry): as the sequence (P08183 whole entry) above

Structure (SMILES)	Stimulated ATPase (% of DMSO) [1]	Basal ATPase (% of DMSO) [1]	Fold vs PTX ÷ 29 (DU145TXR [2]; 5 μM inhibitor) [Fold]	Fold vs PTX (DU145TXR [2]; 5 μM inhibitor, vs PTX alone) [Fold]	Fold vs PTX ÷ 29 (DU145TXR [2]; 7 μM inhibitor) [Fold]	Fold vs PTX (DU145TXR [2]; 7 μM inhibitor, vs PTX alone) [Fold]	Fold vs PTX ÷ 29 (DU145TXR [2]; 10 μM inhibitor) [Fold]	Fold vs PTX (DU145TXR [2]; 10 μM inhibitor, vs PTX alone) [Fold]	Maximum ATP binding mol SL-ANP bound/mol P-gp [3] [mol SL-ANP bound/mol P-gp]	Cellular calcein accumulation relative to parental compound 29 ([4]; after 6-hour pre-incubation)	Cellular calcein accumulation relative to parental compound 29 ([4]; no preincubation)	Basal ATPase (% of DMSO) [5]	Stimulated ATPase (% of DMSO) [5]	other results
Cc1cc(C)c(-c2cc(NC(=O)CSc3cccc(NC(=O)c4cncc(Br)c4)c3)n(-c3ccccc3)n2)cc1C [SMU29-551, 5-bromo-N-(3-((2-oxo-2-((1-phenyl-3-(2,4,5-trimethylphenyl)-1H-pyrazol-5-yl)amino)ethyl)thio)phenyl)nicotinamide]	62 ± 5 % of DMSO	150 ± 6 % of DMSO	9.7	106	6.6	236	3.5	353	1.7 ± 0.1	equivalent to 29	marginally higher calcein accumulation than parental compound 29	72 ± 9 % of DMSO	27 ± 1 % of DMSO	
Cc1cc(C)c(-c2cc(NC(=O)CSc3nnc4c(n3)[nH]c3ccccc34)n(-c3ccccc3)n2)cc1C [SMU29-541, 2-((5H-[1,2,4]triazino[5,6-b]indol-3-yl)thio)-N-(1-phenyl-3-(2,4,5-trimethylphenyl)-1H-pyrazol-5-yl)acetamide]	68 ± 7 % of DMSO	101 ± 12 % of DMSO	9.2	101	3.4	125	3.4	125	1.8 ± 0.1	exceeded 29 significantly	performed relatively equally to 29	87 ± 9 % of DMSO	66 ± 6 % of DMSO	Fold vs PTX (DU145TXR [2]; 3 μM inhibitor, fold improvement of PTX sensitivity vs PTX alone): 5 Fold; Toxicity in cell viability assays (DU145TXR [6]): some toxicity
Cc1cc(C)c(-c2cc(NC(=O)CSCC(=O)c3ccc4c(c3)Cc3ccccc3-4)n(-c3ccccc3)n2)cc1C [SMU29-216]	108 ± 2 % of DMSO	105 ± 7 % of DMSO	1.3	14	1	34	0.4	37	1.7 ± 0.1			69 ± 8 % of DMSO	64 ± 6 % of DMSO	Effect on stimulated ATPase [1]: none; Effect on stimulated ATPase ([1]; listed as 216): did not affect; Effect on basal ATPase [1]: none; Effect on basal ATPase ([1]; listed as 216): did not significantly affect; Effect on SL-ANP binding [3]: no; Cellular accumulation: ratio of plus Tariquidar over no Tariquidar (P-gp): 1.1; Transport substrate for P-gp (P-gp; not told): no; Effect on basal ATPase [5]: inhibitor; Effect on stimulated ATPase [5]: inhibitor
